Values quoted from earlier work in patent US20050196418A1, “Bioavailability and improved delivery of alkaline pharmaceutical drugs” (priority 2004, published 2005).

Conditions: free base; due to air oxidation

chemical stability in a solution or formulation for shelf storage: chemically unstable
Structure (SMILES): Clc1ccccc1C(c1ccccc1)(c1ccccc1)n1ccnc1 [Clotrimazole]
